According to patent US20220008411A1, “TOLL-LIKE RECEPTOR 7 OR 8 AGONIST-CHOLESTEROL COMPLEX AND METHOD OF PREPARING SAME” (RESEARCH & BUSINESS FOUNDATION SUNGKYUNKWAN UNIVERSITY, priority 2019, published 2022):

Assays:
[1] = system: bone marrow-derived dendritic cells (BMDCs) or bone marrow-derived macrophages (BMDMs); assay: activation of immune cells, cleavable vs uncleavable complex (ELISA); assay type: cell-based; settings: given as liposome, 24 hours
Protocol: Degree of activation of immune cells was confirmed using the cholesterol-resiquimod complex, in which cholesterol is not cleaved at a specific point of time as a control. […] In addition, a liquid culture was obtained, centrifuged at 490 g for 5 minutes, thereby obtaining only a supernatant, and ELISA was carried out using a BD OptEIA™ kit.

carboxylesterase = settings: nanoliposome, 30 units of carboxylesterase, 37° C.
[2] = toxicity in vivo (serum cytokine, body weight); parameters: species or system C57BL/6 mouse; settings: 25 μg/100 μL subcutaneous
Protocol: In addition, the collected blood was centrifuged (4° C., 13,000 rpm, 20 min) to separate serum and blood cells, and a cytokine amount was measured through ELISA using the serum.

[3] = system: B16-OVA melanoma cell line; assay: anticancer effect with OVA antigen in B16-OVA melanoma model; settings: intratumoral injection on day 0, 3, 6 and 9
Protocol: More specifically, 5×10^5 cells of a B16-OVA cell line were subcutaneously injected into the right flank of a C57BL/6 mouse, and the time when a tumor size reached approximately 50 mm^3 was set to day 0, each of phosphate-buffered saline (control), an OVA antigen (OVA), resiquimod+OVA antigen (R848+OVA), and a nanoliposome including a cholesterol-resiquimod complex, +OVA antigen (Lipo(Chol-R848)+OVA) were administered into a mouse through intratumoral injection on day 0, 3, 6 and 9. 10 μg of the OVA antigen was administered, 25 μg of resiquimod was administered, and 25 μg (based on resiquimod) of the nanoliposome including the cholesterol-resiquimod complex was administered. In addition, a mouse survival rate and a cancer size were measured.

For `CCOCc1nc2c(NC(=O)OC3CCC4(C)C(=CCC5C4CCC4(C)C(C(C)CCCC(C)C)CCC54)C3)nc3ccccc3c2n1CC(C)(C)O` (stereo not drawn) [Chol-R848, cholesterol-conjugated resiquimod], the “activation of immune cells” value [1] was “effectively activates immune cells” and the “cholesterol cleavage by enzyme” value (carboxylesterase) was “cleaved”.

For `CCOCc1nc2c(N)nc3ccccc3c2n1CC(C)(C)O` [resiquimod], the body weight [2] was “dramatically changing a body weight” and the “cytokine amount in serum” value [2] was “rapidly increased in serum at an early stage”.

B1: OVA antigen: ovalbumin (OVA) antigen (protein, UniProt P01012 2-386, looked up)
Ovalbumin: GSIGAASMEFCFDVFKELKVHHANENIFYCPIAIMSALAMVYLGAKDSTRTQINKVVRFDKLPGFGDSIEAQCGTSVNVHSSLRDILNQITKPNDVYSFSLASRLYAEERYPILPEYLQCVKELYRGGLEPINFQTAADQARELINSWVESQTNGIIRNVLQPSSVDSQTAMVLVNAIVFKGLWEKAFKDEDTQAMPFRVTEQESKPVQMMYQIGLFRVASMASEKMKILELPFASGTMSMLVLLPDEVSGLEQLESIINFEKLTEWTSSNVMEERKIKVYLPRMKMEEKYNLTSVLMAMGITDVFSSSANLSGISSAESLKISQAVHAAHAEINEAGREVVGSAEAGVDAASVSEEFRADHPFLFCIKHIATNAVLFFGRCVSP
In the case of B1, the mouse survival [3] is reported as “no mouse surviving three weeks or more” and the cancer size ([3]; 10 μg OVA, 25 μg resiquimod basis) is reported as “dramatically increased”.
